Measurements taken from article PMC2801547 (Journal of medicinal chemistry, 2009).

Tests used:
[1] = NOD/SCID mice, 5-50 mg/kg daily for five days, IV and IP, day 5
[2] = system: normal human foreskin fibroblasts (HFF); test: cells; conditions: Fibroblast, 72 h
[3] = system: panel of human cancer cell lines; conditions: read-out: IC50 in all cell lines tested; all tumor lines examined; cited from earlier work
[4] = system: WiDr colorectal adenocarcinoma cells; test: cells; conditions: Homo sapiens, 72 h
[5] = system: pTN24 dual-reporter splicing construct in 293T cells; test: Dual-reporter cell-based splicing assay; conditions: 5 hours treatment
[6] = cited from earlier work
[7] = system: several tumor cell lines; conditions: cited from earlier work
[8] = system: JeKo-1 mantle cell lymphoma tumors; conditions: JeKo-1 tumor-bearing mice, Supplemental Figure S2

For `CC(/C=C/[C@@H]1C[C@]2(CO2)CC(C)(C)O1)=C\C[C@H]1CC[C@@H](NC(=O)/C=C\[C@H](C)OC(=O)C(C)C)CC1` [compound 5, (S,Z)-5-((1R,4R)-4-((2E,4E)-5-((3R,5S)-7,7-dimethyl-1,6-dioxaspiro[2.5]octan-5-yl)-3-methylpenta-2,4-dienyl)cyclohexylamino)-5-oxopent-3-en-2-yl isobutyrate], the “blood cell counts (CBC) versus vehicle-only mice” value [1] was “No significant differences in blood cell counts” and the IC50 [2] was greater than 10 µM.

In the case of `CC(=O)O[C@@H](C)/C=C\C(=O)N[C@H]1CC[C@@H](C/C=C(C)/C=C/[C@@H]2C[C@]3(CO3)CC(C)(C)O2)CC1` [compound 3a], the IC50 [3] is listed as less than 5 µM and the IC50 [4] is listed as 2 µM.

With `CC(=O)N[C@H]1CO[C@@H](C/C=C(C)/C=C/[C@@H]2C[C@]3(CO3)CC(C)(C)O2)OC1` [compound 27, N-((2s,5R)-2-((2E,4E)-5-((3R,5S)-7,7-dimethyl-1,6-dioxaspiro[2.5]octan-5-yl) -3-methylpenta-2,4-dienyl)-1,3-dioxan-5-yl)acetamide] the “effect on splicing (ratio of luciferase to β-galactosidase activity)” value [5] was “had no effect”.

With `CC(/C=C/[C@@H]1C[C@]2(CO2)CC(C)(C)O1)=C\C[C@H]1CC[C@@H](NC(=O)/C=C\[C@H](C)O)CC1` [compound 4] the “effect on splicing (ratio of luciferase to β-galactosidase activity)” value [5] was “altered splicing only very slightly at the highest concentration tested”.

For `CC[C@H](O)[C@@H](C)[C@H]1O[C@@H]1C[C@@](C)(O)/C=C/C=C(\C)[C@H]1OC(=O)C[C@H](O)CC[C@@](C)(O)[C@@H](OC(=O)N2CCN(C3CCCCCC3)CC2)/C=C/[C@@H]1C` [compound 2], the “activity relative to pladienolide B” value [6] is listed as “four-fold less active than pladienolide B”.

In the case of `CC(=O)O[C@@H](C)/C=C\C(=O)N[C@@H]1C[C@H](C)[C@H](C/C=C(C)/C=C/[C@H]2O[C@](C)(O)C[C@@]3(CO3)[C@@H]2O)O[C@@H]1C` [compound 1], the “cytotoxicity IC50s” value ([7]; several tumor cell lines) is given as “low nanomolar range” and the GI50s ([7]; several tumor lines) is given as “single-digit nanomolar range”.

With `CC(/C=C/[C@@H]1C[C@]2(CO2)CC(C)(C)O1)=C\C[C@H]1OC[C@@H](NC(=O)/C=C\[C@H](C)OC(=O)C(C)C)CO1` [compound 26, (S,Z)-5-((2R,5R)-2-((2E,4E)-5-((3R,5S)-7,7-dimethyl-1,6-dioxaspiro[2.5]octan-5-yl)-3-methylpenta-2,4-dienyl)-1,3-dioxan-5-ylamino)-5-oxopent-3-en-2-yl isobutyrate] the “in vivo anti-cancer activity” value [8] was “robust anti-cancer activity that was comparable to compound 5” and the “effect on splicing (ratio of luciferase to β-galactosidase activity)” value [5] was “selectively inhibit splicing”.
